From US4479943A, “3-Demethoxyistamycin B, the 2"-N-formimidoyl derivative thereof and pharmaceutical composition containing same” (Zaidan Hojin Biseibutsu Kagaku Kenkyu Kai, priority 1982, dated 1984)

Tests used:
Escherichia coli JR225 = assay: Antibacterial MIC, standard serial dilution; format: cell-based; settings: nutrient agar, 37° C., 17 hours, as free base
Escherichia coli NIHJ = assay: Antibacterial MIC, standard serial dilution; format: cell-based; settings: nutrient agar, 37° C., 17 hours, as free base
[1] = test system: Pseudomonas aeruginosa GN315; assay: Antibacterial MIC, standard serial dilution; format: cell-based; settings: nutrient agar, 37° C., 17 hours, as free base
[2] = test system: Bacillus subtilis NRRL B-558; assay: Antibacterial MIC, standard serial dilution; format: cell-based; settings: nutrient agar, 37° C., 17 hours, as free base
[3] = test system: Pseudomonas aeruginosa A3; assay: Antibacterial MIC, standard serial dilution; format: cell-based; settings: nutrient agar, 37° C., 17 hours, as free base
[4] = test system: Escherichia coli JR66/W677; assay: Antibacterial MIC, standard serial dilution; format: cell-based; settings: nutrient agar, 37° C., 17 hours, as free base
[5] = test system: Pseudomonas aeruginosa PST1; assay: Antibacterial MIC, standard serial dilution; format: cell-based; settings: nutrient agar, 37° C., 17 hours, as free base
[6] = test system: Klebsiella pneumoniae 22#3038; assay: Antibacterial MIC, standard serial dilution; format: cell-based; settings: nutrient agar, 37° C., 17 hours, as free base
Escherichia coli K-12 = assay: Antibacterial MIC, standard serial dilution; format: cell-based; settings: nutrient agar, 37° C., 17 hours, as free base
[7] = test system: Escherichia coli K-12 C600 R135; assay: Antibacterial MIC, standard serial dilution; format: cell-based; settings: nutrient agar, 37° C., 17 hours, as free base
Providencia sp. Pv16 = assay: Antibacterial MIC, standard serial dilution; format: cell-based; settings: nutrient agar, 37° C., 17 hours, as free base
Bacillus anthracis = format: cell-based; settings: nutrient agar, 37° C., 17 hours, as free base
Sarcina lutea PCI 1001 = assay: Antibacterial MIC, standard serial dilution; format: cell-based; settings: nutrient agar, 37° C., 17 hours, as free base
[8] = test system: Escherichia coli K-12 LA290 R55; assay: Antibacterial MIC, standard serial dilution; format: cell-based; settings: nutrient agar, 37° C., 17 hours, as free base
[9] = test system: Klebsiella pneumoniae PCI602; assay: Antibacterial MIC, standard serial dilution; format: cell-based; settings: nutrient agar, 37° C., 17 hours, as free base
[10] = test system: Pseudomonas aeruginosa H9; assay: Antibacterial MIC, standard serial dilution; format: cell-based; settings: nutrient agar, 37° C., 17 hours, as free base
[11] = test system: Escherichia coli K-12 ML1410 R81; assay: Antibacterial MIC, standard serial dilution; format: cell-based; settings: nutrient agar, 37° C., 17 hours, as free base
Providencia sp. 2991 = assay: Antibacterial MIC, standard serial dilution; format: cell-based; settings: nutrient agar, 37° C., 17 hours, as free base
[12] = test system: Escherichia coli K-12 LA290 R56; assay: Antibacterial MIC, standard serial dilution; format: cell-based; settings: nutrient agar, 37° C., 17 hours, as free base
[13] = test system: Pseudomonas aeruginosa H11; assay: Antibacterial MIC, standard serial dilution; format: cell-based; settings: nutrient agar, 37° C., 17 hours, as free base
[14] = test system: Bacillus cereus ATCC 10702; assay: Antibacterial MIC, standard serial dilution; format: cell-based; settings: nutrient agar, 37° C., 17 hours, as free base
[15] = test system: Corynebacterium bovis 1810; assay: Antibacterial MIC, standard serial dilution; format: cell-based; settings: nutrient agar, 37° C., 17 hours, as free base
Proteus rettgeri GN311 = assay: Antibacterial MIC, standard serial dilution; format: cell-based; settings: nutrient agar, 37° C., 17 hours, as free base
[16] = test system: Micrococcus flavus FDA 16; assay: Antibacterial MIC, standard serial dilution; format: cell-based; settings: nutrient agar, 37° C., 17 hours, as free base
Serratia marcescens = assay: Antibacterial MIC, standard serial dilution; format: cell-based; settings: nutrient agar, 37° C., 17 hours, as free base
Serratia sp. 4 = assay: Antibacterial MIC, standard serial dilution; format: cell-based; settings: nutrient agar, 37° C., 17 hours, as free base
Proteus rettgeri GN466 = assay: Antibacterial MIC, standard serial dilution; format: cell-based; settings: nutrient agar, 37° C., 17 hours, as free base
[17] = test system: Pseudomonas aeruginosa ROS 134/PU21; assay: Antibacterial MIC, standard serial dilution; format: cell-based; settings: nutrient agar, 37° C., 17 hours, as free base
[18] = test system: Staphylococcus aureus Ap01; assay: Antibacterial MIC, standard serial dilution; format: cell-based; settings: nutrient agar, 37° C., 17 hours, as free base
Serratia sp. SOU = assay: Antibacterial MIC, standard serial dilution; format: cell-based; settings: nutrient agar, 37° C., 17 hours, as free base
Escherichia coli K-12 R5 = assay: Antibacterial MIC, standard serial dilution; format: cell-based; settings: nutrient agar, 37° C., 17 hours, as free base
[19] = test system: Escherichia coli K-12 LA290 R64; assay: Antibacterial MIC, standard serial dilution; format: cell-based; settings: nutrient agar, 37° C., 17 hours, as free base
[20] = test system: Pseudomonas aeruginosa 21-75; assay: Antibacterial MIC, standard serial dilution; format: cell-based; settings: nutrient agar, 37° C., 17 hours, as free base
[21] = test system: Pseudomonas aeruginosa B-13; assay: Antibacterial MIC, standard serial dilution; format: cell-based; settings: nutrient agar, 37° C., 17 hours, as free base
[22] = test system: Staphylococcus aureus FDA 209P; assay: Antibacterial MIC, standard serial dilution; format: cell-based; settings: nutrient agar, 37° C., 17 hours, as free base
[23] = test system: Staphylococcus aureus Smith; assay: Antibacterial MIC, standard serial dilution; format: cell-based; settings: nutrient agar, 37° C., 17 hours, as free base
[24] = test system: Pseudomonas aeruginosa K-Ps 102; assay: Antibacterial MIC, standard serial dilution; format: cell-based; settings: nutrient agar, 37° C., 17 hours, as free base
[25] = test system: Escherichia coli K-12 ML1630; assay: Antibacterial MIC, standard serial dilution; format: cell-based; settings: nutrient agar, 37° C., 17 hours, as free base
[26] = test system: Pseudomonas aeruginosa 99; assay: Antibacterial MIC, standard serial dilution; format: cell-based; settings: nutrient agar, 37° C., 17 hours, as free base
Escherichia coli W677 = assay: Antibacterial MIC, standard serial dilution; format: cell-based; settings: nutrient agar, 37° C., 17 hours, as free base
[27] = test system: Pseudomonas maltophilia GN 907; assay: Antibacterial MIC, standard serial dilution; format: cell-based; settings: nutrient agar, 37° C., 17 hours, as free base
[28] = test system: Salmonella enteritidis 1891; assay: Antibacterial MIC, standard serial dilution; format: cell-based; settings: nutrient agar, 37° C., 17 hours, as free base
[29] = test system: Escherichia coli K-12 R388; assay: Antibacterial MIC, standard serial dilution; format: cell-based; settings: nutrient agar, 37° C., 17 hours, as free base
[30] = test system: Bacillus subtilis PCI 219; assay: Antibacterial MIC, standard serial dilution; format: cell-based; settings: nutrient agar, 37° C., 17 hours, as free base
[31] = test system: Mycobacterium smegmatis ATCC 607; assay: Antibacterial MIC, standard serial dilution; format: cell-based; settings: nutrient agar, 37° C., 17 hours, as free base
[32] = test system: Pseudomonas aeruginosa No. 12; assay: Antibacterial MIC, standard serial dilution; format: cell-based; settings: nutrient agar, 37° C., 17 hours, as free base
[33] = test system: Pseudomonas aeruginosa TI-13; assay: Antibacterial MIC, standard serial dilution; format: cell-based; settings: nutrient agar, 37° C., 17 hours, as free base
[34] = test system: Escherichia coli K-12 J5R11-2; assay: Antibacterial MIC, standard serial dilution; format: cell-based; settings: nutrient agar, 37° C., 17 hours, as free base
mice = assay: Acute toxicity, intravenous administration in mice; format: in vivo
[35] = test system: Escherichia coli K-12 ML1629; assay: Antibacterial MIC, standard serial dilution; format: cell-based; settings: nutrient agar, 37° C., 17 hours, as free base
Proteus vulgaris 0X19 = assay: Antibacterial MIC, standard serial dilution; format: cell-based; settings: nutrient agar, 37° C., 17 hours, as free base
Salmonella typhi T-63 = assay: Antibacterial MIC, standard serial dilution; format: cell-based; settings: nutrient agar, 37° C., 17 hours, as free base
[36] = test system: Staphylococcus epidermidis 109; assay: Antibacterial MIC, standard serial dilution; format: cell-based; settings: nutrient agar, 37° C., 17 hours, as free base
[37] = test system: Shigella dysenteriae JS11910; assay: Antibacterial MIC, standard serial dilution; format: cell-based; settings: nutrient agar, 37° C., 17 hours, as free base
[38] = test system: Escherichia coli K-12 ML1410; assay: Antibacterial MIC, standard serial dilution; format: cell-based; settings: nutrient agar, 37° C., 17 hours, as free base

## CNCC1CCC(N)C(OC2C(N)CCC(N(C)C(=O)CNC=N)C2O)O1.O.O.O.O.O=S(=O)(O)O.O=S(=O)(O)O (centres unmarked) [DBF, 3-demethoxy-2"-N-formimidoylistamycin B]
Escherichia coli JR225
  MIC: 0.39 µg/mL
Escherichia coli NIHJ
  MIC: 0.20 µg/mL
[1]
  MIC: 50 µg/mL
[2]
  MIC: < 0.20 µg/mL
[3]
  MIC: 0.39 µg/mL
[4]
  MIC: 0.39 µg/mL
[5]
  MIC: 25 µg/mL
[6]
  MIC: 1.56 µg/mL
Escherichia coli K-12
  MIC: 0.39 µg/mL
[7]
  MIC: 6.25 µg/mL
Providencia sp. Pv16
  MIC: 0.78 µg/mL
Bacillus anthracis
  MIC: 0.39 µg/mL
Sarcina lutea PCI 1001
  MIC: 0.39 µg/mL
[8]
  MIC: 0.78 µg/mL
[9]
  MIC: 0.78 µg/mL
[10]
  MIC: 25 µg/mL
[11]
  MIC: 0.39 µg/mL
Providencia sp. 2991
  MIC: 1.56 µg/mL
[12]
  MIC: 0.39 µg/mL
[13]
  MIC: 50 µg/mL
[14]
  MIC: 1.56 µg/mL
[15]
  MIC: < 0.20 µg/mL
Proteus rettgeri GN311
  MIC: 0.39 µg/mL
[16]
  MIC: 0.39 µg/mL
Serratia marcescens
  MIC: 0.78 µg/mL
Serratia sp. 4
  MIC: 12.5 µg/mL
Proteus rettgeri GN466
  MIC: < 0.20 µg/mL
[17]
  MIC: 100 µg/mL
[18]
  MIC: 0.39 µg/mL
Serratia sp. SOU
  MIC: 12.5 µg/mL
Escherichia coli K-12 R5
  MIC: 0.78 µg/mL
[19]
  MIC: 0.78 µg/mL
[20]
  MIC: 50 µg/mL
[21]
  MIC: > 100 µg/mL
[22]
  MIC: 0.39 µg/mL
[23]
  MIC: < 0.20 µg/mL
[24]
  MIC: 25 µg/mL
[25]
  MIC: 1.56 µg/mL
[26]
  MIC: > 100 µg/mL
Escherichia coli W677
  MIC: 0.39 µg/mL
[27]
  MIC: > 100 µg/mL
[28]
  MIC: 1.56 µg/mL
[29]
  MIC: 0.39 µg/mL
[30]
  MIC: 0.20 µg/mL
[31]
  MIC: 0.39 µg/mL
[32]
  MIC: 25 µg/mL
[33]
  MIC: 12.5 µg/mL
[34]
  MIC: 0.78 µg/mL
mice; mice, intravenous, in words
  acute toxicity: low toxicity
mice; mouse, in vivo, iv, 336 h
  tolerated dose (all treated mice): 100 mg/kg
[35]
  MIC: 0.39 µg/mL
Proteus vulgaris 0X19
  MIC: < 0.20 µg/mL
Salmonella typhi T-63
  MIC: 0.39 µg/mL
[36]
  MIC: 0.20 µg/mL
[37]
  MIC: 1.56 µg/mL
[38]
  MIC: 1.56 µg/mL
